For one assay, the system named is EAE in C57BL6 animals. As to the kind of experiment: Experimental autoimmune encephalomyelitis (EAE) model. Format: in vivo, mouse. How it is done: FIGS. 9A-E. Xenon treatments delayed EAE symptoms. A. Scheme representative of experimental design used. C57BL6 animals were immunized with 150 ug of MOG diluted v/v in CFA followed by two doses of B. Pertussis toxin (200 ng) applied during immunization and 48 hours later. The treatment with xenon consisted of a 40 minutes exposure twice a week starting on day 0. After clinical evaluation the animals were euthanized at the peak of the disease and the frequency of inflammatory cells evaluated by flow cytometry and IHC. B. Score curve from clinical signs. C. Evaluation of microglia cells from spinal cord by flow cytometry. Gate based on population CD45+, CD11b+, Ly6C−, Clec12a−. D. T Helper cells evaluation by flow cytometry. E. Immunofluorescence of spinal cord from animals on day 17th. At top the control animals and at the bottom the animals treated with Xenon. The tissue was stained for Tmem119, Clec7a and MBP, quantification measured by the Fiji ImageJ software. Statistical analysis: T-test. In order to evaluate the effects of Xenon as a possible candidate for Multiple Sclerosis (MS) treatment, we development a new protocol of exposition. We used the experimental autoimmune encephalomyelitis (EAE) model that mimics part of the mechanisms presents in MS. The induction of this model is due to the combination of the oligodendrocyte myelin (MOG) diluted in complete Freund's adjuvant (CFA) to break immunological tolerance and initiate the development of autoimmunity in these animals. In association we give two 200 ng doses of Bordetella Pertussis toxin that helps in increasing the permeability of the blood-brain barrier allowing the entry of immune cells to the spinal cord. The treatment with xenon was divided into 5 exposures of 40 minutes divided twice a week in the concentration of 3 PSI of xenon with 1 PSI of oxygen with the oxygen and CO2 concentration constantly measured. This treatment took place from day 0 to day 15 after immunization, with the animals' euthanasia on day 17 (See FIG. 9A). The clinical evaluation started on day 8 with the clinical signs being classified into: 0 no disease, 1—limp tail, 2—weak/partially paralyzed hind legs, 3—completely paralyzed hind legs, 4—complete hind and partial front leg paralysis, 5—complete paralysis/death.

The subject of assay [1] is Apoe in CD68+ phagosomes in APP/PS1 mice. As to the kind of experiment: Apoe engulfed in CD68+ phagosomes in APP/PS1 mice. In kind it is in vivo, mouse. As for the experimental part: APP-PS1 and WT mice were exposed to Xenon vs. normal air in vivo for 8 weeks. After that, the mice were sacrificed and perfused with Hanks' Balanced Salt solution (HBSS). The mouse brain was separated, and the right hemisphere was fixed in 4% PFA. After 24 hours the hemisphere was then transferred to a 30% sucrose solution for 48 hours. Brains were later frozen in Tissue-TeK O.C.T. and stored at −80 until ready to be cut. […] sagittal brain sections were cut with a cryostat and kept free floating in cryoprotectant solution. On the first day of staining, free floating brain sections were washed twice with phosphate buffered saline (PBS) and then incubated for one hour in blocking buffer (PBS, 0.1% Triton, 1% Bovine Serum Albumin, 10% Normal Horse Serum). Afterwards, the sections were incubated with primary antibody [Mouse-anti-Apoe (1:1000) and Rat-anti-CD68 (1:200)] in pre-blocking buffer (PBS, 0.1% Triton, 1% Bovine Serum Albumin, 5% Normal Horse Serum) on a shaker overnight at 4° C. The following day, the sections were washed three times with PBS. […] For quantification of the percentage of Apoe engulfed in CD68^+ phagosomes, acquired images were imported to Fiji software (ImageJ). […] The overlap of the staining/CD68+ staining was quantified in both groups. […]

For assay [2], the system named is dN-phagocytic microglia (MG-dNΦ). As to the kind of experiment: Acute neurodegeneration mouse model (dead neurons injection), RNA-Sequencing of microglia. In kind it is in vivo. How it is done:
We developed a new acute neurodegeneration mouse model to induce neurodegenerative MGnD-microglia^36. In brief, primary neurons (d7-d10) were typically cultured one week after initiation of culture. Neurons were removed from the surface of the plate by multiple washed with PBS. The neurons were then incubated under UV light (302 nm) at an intensity of 6315 W for 15 minutes to induce apoptosis. After this step the neurons were kept on ice. The cells were collected, spun down via centrifugation, and resuspended in 1 ml PBS. Next they were stained with the labeling dye (Alexa405 NHS Ester, Invitrogen, A3000) for 15 min at 37° C., protected from light. Neurons were then washed, spun and resuspended. Number of apoptotic cells was determined using a trypan blue stain and a cellometer. Neurons were resuspended at a density of 50,000 cells per μl.
These apoptotic dead neurons (dN) injected into the cortex and hippocampus of naïve mice induced the recruitment of P2ry12^+ microglia towards the site of injection. P2ry12^+ microglia changed morphology from an M0-homeostatic non-phagocytic (MG-nΦ) phenotype to an amoeboid-phagocytic (MG-dNΦ) phenotype at the vicinity of the injection site. Induction of MGnD microglia was not detected in PBS-injected control brains. […] Trem2 expression has been shown previously, including by our laboratory and others, to have beneficial effect on microglia recruitment towards Aβ-plaques^61-63, associated with restriction of AD^64. Moreover, TREM2 has been recently identified as a receptor for Aβ^65. […] This provides evidence that Xe-gas treatment has a protective immunomodulatory role to induce microglia protective functions to treat AD.

In a further assay the test system is U-937 cells. Put plainly: Apoptosis in stored U-937 cells. Format: cell-based, human. Particulars: xenon vs no gas. From the text: (§1) FIGS. 7A-D. Xe-treatment prevents apoptosis in variety of cells. A. Viability of lymphocyte-like Jurkat cell after 1 day storage. […] C. Viability of monocyte-like U-937 cells after 1 day storage. D. Viability of monocyte-like U-937 cells after 14 days storage.
(§2) It is known that Xe treatment protects neurons from apoptosis by reducing intracellular calcium, protecting mitochondrial membranes, and attenuating cell damage caused by reactive oxygen species (ROS)^28,29.

The test system of assay [3] is FCRLS+ microglia in APP/PS1 mice. Put plainly: RNAseq of FCRLS+ microglia from Xe-treated APP/PS1 mice. In kind it is in vivo, mouse. From the text:
Based on recent findings that danger signals (dead neurons, neuritic axons and Ab peptides) alter functional phenotype of microglia from the homeostatic (M0) to neurodegenerative (MGnD) phenotype in AD, we hypothesized that Xe-gas treatment has a protective immunomodulatory role to restore homeostatic ‘sensome’ microglial functions in neurodegenerative diseases. To address whether Xe-treatment will restore functional microglia and suppress AD-like pathology in APP-PS1^30 mice, we started treatment with Xe at 2 months of age (at the onset of amyloid deposition—early stage) for 8 weeks (once a week for 40 minutes). Of note, these mice start to develop plaques at 6 weeks of age with saturation around 8 months of age. To treat mice with xenon gas we constructed a special chamber which can control supply of Xe and atmospheric gas (FIG. 3A). The closed-circuit system pumps recirculated gas through soda-lime to absorb CO2. CO2 and O2 concentrations were continuously monitored. The gas mixture was premixed in the outside container with excessive pressure. That lead to approximately 70% Xe and 20% 02 in the chamber. When 02 concentration reduced, additional gas mixture was supplied from the mixing container. The system was optimized to treat simultaneously up to 6 mice. Two types of mice were used: APP/PS1 mice and Wild Type mice as a control. The groups contained both males and females who were housed and treated separately. In each group we subjected portion of the mice to Xe treatment, and another portion was used as control by treatment with atmospheric air (FIG. 3B). We isolated FCRLS^+ microglia by FACS and performed RNAseq analysis.

The subject of assay [4] is 6E10+ Abeta plaques and Clec7a+ MGnD microglia in APP/PS1 mice. As to the kind of experiment: Immunostaining of Ab load (6E10) and Clec7a+ MGnD microglia in cortex of APP/PS1 mice. Format: in vivo, mouse. How it is done:
APP-PS1 and WT mice were sacrificed and perfused with Hanks' Balanced Salt solution (HBSS). The mouse brains were separated, and the right hemispheres fixed in 4% PFA. After 24 hours the hemispheres were then transferred to a 30% sucrose solution for 48 hours. Brains were later frozen in Tissue-TeK O.C.T. and stored at −80 until ready to be cut. […] sagittal brain sections were cut with a cryostat and kept free floating in cryoprotectant solution. On the first day of staining, free floating brain sections were washed twice with phosphate buffered saline (PBS) and then incubated for one hour in blocking buffer (PBS, 0.1% Triton, 1% Bovine Serum Albumin, 10% Normal Horse Serum). Afterwards, the sections were incubated with primary antibody [Mouse-anti-Abeta Ab (1:1000, Biolegend, 6E10) and Rat-anti-Clec7a (1:300, Invivogen, mabg-mdect)] in pre-blocking buffer (PBS, 0.1% Triton, 1% Bovine Serum Albumin, 5% Normal Horse Serum) on a shaker overnight at 4° C. The following day, the sections were washed three times with PBS. Secondary antibodies (Donkey-anti-mouse-Cy3 (1:800, JIR, 715-165-150) and Goat-anti-Rat-647 (1:800, Invitrogen, A-21247)) in pre-blocking buffer were added to the sections for 1 hour at room temperature. After washing the sections 3 times with PBS, they were moved onto glass slides and covered with a glass coverslip and DAPI. Then images were taken by Leica DMi8 microscope. 4-6 images of prefrontal cortex with 10× magnification were taken per brain section (3 brain sections were stained per mouse, n=3-5).
For quantification of MGnD and Ab load, acquired images were imported to Fiji software (ImageJ). Then the data channels were separated. Gaussian filtering was used to remove noise. Next, the MGnD and plaques were shown using automatic thresholding methods in Fiji (with “Triangle” thresholding setting for MGnD and “Otsu” for Ab load 6E10). Finally, the percentage of the MGnD and Ab plaques over the cortical area was calculated and averaged, indicating the distribution of MGnD and Ab plaques in the prefrontal cortex.

Assay [5] deals with platelets and red blood cells, Lymphocyte-like Jurkat cells, H9C2 and U937 cells. As to the kind of experiment: Anti-apoptotic effect of Xe-gas on a variety of biological cells. In kind it is cell-based, human.
Description: as §1, §2

Assay [6] concerns cortical neurons and basal forebrain cholinergic neurons. Particulars: mild excitotoxic stress by continued exposure to PDC; cited from earlier work.
Where [7] appears, read: Xe-gas for one hour immediately after dead neurons injection.

Take `[Xe]` [Xenon]: in the assay on EAE in C57BL6 animals (5 exposures of 40 minutes twice a week, day 0 to day 15), the “clinical signs (EAE score)” value is “delay”. Also, in the assay on EAE in C57BL6 animals (flow cytometry), the “expression of CD44 (activation marker) in T lymphocytes” value is listed as “tendency to lower expression” and the “frequency of IFNg in T lymphocytes” value is given as “higher frequency”. Also, in the assay with EAE in C57BL6 animals (immunohistochemistry, day 17), the “frequency of clec7a+ cells in the spinal cord” value is listed as “decrease in the frequency”. In addition, in the assay on EAE in C57BL6 animals (spinal cord, flow cytometry), the “frequency of microglial cells positive for Clec7a” value is given as “lower frequency”; the “frequency of microglial cells positive for Tmem119, PD1 and CD206” value is given as “tended to have a higher frequency”. In addition, the demyelination entry in the assay with EAE in C57BL6 animals (spinal cord, immunohistochemistry, day 17) is listed as “tendency of less demyelination”. Also, the “APOE in the plaque region” value in assay [1] (APP/PS1 mice) is recorded as “reduced”. For the same molecule, the “APOE phagocytosed by CD68+ cells” value in assay [1] (APP/PS1 mice exposed to Xenon vs. normal air for 8 weeks) was “significant reduction”. Further, in assay [2] (setting [7]), the “Trem2 expression in microglia” value was “significantly induced”; the “expression of homeostatic genes such as Siglech, Cst3, Fcgrt and Clqb” value is listed as “induces expression”. In assay [2] (Xenon vs. normal air in vivo, RNA-Sequencing), the “homeostatic and phagocytosis-related genes in MG-dNΦ” value is on record as “induces”. In addition, the “apoptosis in stored U-937 cells” value in the assay on U-937 cells was “inhibited apoptosis”. For the same molecule, the “cytokines induced in MGnD-microglia associated with Aβ-plaques, such as Spp1, Apoe, and Igf1” value in assay [3] was “suppresses”. Moreover, the Bhlhe40 in microglia entry in assay [3] (Xe once a week for 40 minutes for 8 weeks) is “significantly reduced”. In addition, in assay [3] (Xe once a week for 40 minutes for 8 weeks, approx. 70% Xe and 20% O2), the “expression of inflammatory genes including App, Lpl, IIlb, Spp1 and Apoe in microglia” value is “suppressed”. Also, the “% positive area stained by Clec7a” value in assay [4] (APP/PS1 mice, cortex, compared to the control group) was “significantly decreased”. In addition, the “% cortical area of 6E10+ Abeta plaques” value in assay [4] (APP/PS1 mice, prefrontal cortex, compared to the control group) is recorded as “significant reduction”. Further, the “number of plaques of different sizes” value in assay [4] (all groups of different plaque sizes) is given as “reduction in all groups”. Further, in assay [4] (plaque size 0-100 um2), the “number of plaques, plaque size 0-100 um2” value was “reduction reached significance”. Besides, in assay [5], the anti-apoptotic effect entry is reported as “profound anti-apoptotic effect”. In assay [6], the “antiapoptotic effect on neurons in AD cell models” value is listed as “direct antiapoptotic effect”.

Values taken from patent US20230117859A1, “INHALED XENON THERAPY IN NEURODEGENERATIVE DISEASE” (The Brigham and Women`s Hospital, Inc., priority 2020, published 2023).
